{"source": "patent US11021686B2", "about": "“In vitro production of cholangiocytes” (CAMBRIDGE ENTERPRISE LIMITED, priority 2015, dated 2021)", "key": {"hESC-Chol": {"system": "hESC-Chol", "conditions": "Dianat et al (6); cited from earlier work"}, "CLC organoids": {"system": "CLC organoids", "assay": "Measurement of intracellular calcium levels (Fluo-4) in CLC organoids", "assay_type": "cell-based, human", "conditions": "1 μM Acetylcholine or 30 μM ATP", "experimental": "Intracellular calcium signaling, regulated by stimuli such as acetylcholine and ATP constitutes a key second messenger for cholangiocytes (18). CLC organoids were incubated with 25 μM of the calcium indicator Fluo-4 AM (Life technologies) for 60 minutes at 37° C. and washed 3 times with William's E medium. Fresh William's E medium with supplements was added following the third wash. The organoids were stimulated with 1 μM of Acetylcholine (Sigma-Aldrich) or 30 μM of ATP (Sigma-Aldrich), while time lapse images were taken. Each measurement was repeated in triplicate. To calculate the number of cells responding to stimulation, the number of cells loaded with Fluo-4 AM was counted by 2 different researchers prior to the start of the experiment. Following stimulation with ATP or acetylcholine the number of responding cells (increase in fluorescence) was also counted and responsiveness was expressed as the ratio of responding cells over the total number of cells loaded with Fluo-4 AM. The statistical approach for smoothing the data and plotting bands for the confidence limits please see ‘Statistical analyses’."}}, "note": "Entries after “also recorded” stand apart in the source; their conditions may differ.", "data": [{"smiles": "Nc1ncnc2c1ncn2[C@@H]1O[C@H](COP(=O)(O)OP(=O)(O)OP(=O)(O)O)[C@@H](O)[C@H]1O", "note": "[ATP]", "values": [{"measurement": "responsiveness of hESC-Chol", "setting": "hESC-Chol", "value": 70, "unit": "%"}, {"measurement": "intracellular calcium levels", "setting": "CLC organoids; CLC organoids loaded with Fluo-4", "value": "increasing intracellular calcium levels; also recorded: an increase in intracellular calcium levels"}, {"measurement": "responsiveness (responding cells over total cells loaded with Fluo-4 AM)", "setting": "CLC organoids; CLCs", "value": 95, "unit": "%"}]}]}
